Measured values reported in patent publication US5171851A, “Imidazole substituted benzoxazine or benzothiazine derivatives” (Dong-A Pharm. Co., Ltd., priority 1990, dated 1992).
Where two headings read alike, the source gives them in different places.

Key:
[1] = tested on: blood perfused papillary muscle preparation; assay: contractile power on blood perfused papillary muscle preparation; design: species or system dog; details: Canis lupus familiaris, read-out: change of contractivity (%); for activation at 0.001 mg: dose 1.0 ug; for activation at 0.003 mg: dose 3.0 ug; for activation at 0.01 mg: dose 10.0 ug; for activation at 0.03 mg: dose 30.0 ug
Method: Determination of contractile power on blood perfused papillary muscle preparation:
Dogs of either sex weighing 7-12 kg were anesthetized with sodium pentobarbital (30 mg/kg, i.v.). Heparin of 1000 unit/kg was administered to each animal intravenously. The animals were exsanguinated and heart was removed. The preparation was perfused through the cannulated anterior septal artery (ASA) with arterial blood from a donor dog at constant pressure of about […]. Donor dogs were anesthetized with sodium pentobarbital (30 mg/kg, i.v.). Heparin of 1000 units/kg was administered intravenously. The papillary muscle was stimulated with rectangular pulses of 5- ms duration and about 1.5 times the threshold voltage at a rate of 120 stimuli/min through bipolar electrodes. Resting tension was made to 2 g. The developed tension of papillary muscle was determined by Isometric tresducer. Detailed method was reporated by Matsumoto in Am J. Physiol. 218, 1459-1463 (1970). Test compound at the doses of 10-30 ul was injected in flowing blood in the gum tube connected to catheter. The inotropic effect of the test compounds was shown by change percent of developed tension compared with that prior to the administration of the test compounds.

[2] = tested on: blood-perfused sino-atrial preparation; assay: sinus rate on blood-perfused sino-atrial preparation; design: species or system dog; details: for activation at 0.001 mg / activation at 0.003 mg / activation at 0.01 mg / activation at 0.03 mg: Canis lupus familiaris, read-out: change of sinus rate (%); for activation at 0.001 mg: dose 1.0 ug; for activation at 0.003 mg: dose 3.0 ug; for activation at 0.01 mg: dose 10.0 ug; for activation at 0.03 mg: dose 30.0 ug; for change of sinus rate (%): at the ED 30 dose
Method: Determination of sinus rate on blood-perfused sino-atrial preparation: Mongrel gods of either sex weighing 7-12 kg were anesthetized with sodium pentoba rbital (30 mg/kg i.v.). Heparin ob 1000 unit/kg was administered to each animal intravenously and the animals were exsanguinated. Heart was removed and put in Krebs-Henseleit solution. Catheter was inserted into blood vessel between right coronary artery and SA nodes. Right atrium and catheter were together removed. Blood supplied from carotid artery of donor dog of either sex weighing 15-25 kg, was supplied to blood vessel cather from right coronary artery and SA node under constant blood pressure of 100 mmHG by use of Peristaltic pump. The resting tension of right atrial muscle was made to 2g. The sinus rate triggered by spontaneous contraction of atrial muscle was determined on Narco physiograph Narcotrace 4). Detailed method was reported by S. Chiba, et al. in Japanese Pharmacology 25, 433-439(1975). Doses of test compounds were injected into flowing blood in gum tube connected to the near part of the catheter inserted into right coronary artery. The effects on sinus rate were shown as percent compared with the sinus ratio prior to the injection of the test compounds.

[3] = tested on: anesthetized cats; assay: cardiotonic effect on anesthetized cats; type: in vivo, cat; details: Felis catus; for change in vivo at 0.01 mg/kg: 0.01 mg/Kg iv; for change in vivo at 0.03 mg/kg: 0.03 mg/Kg iv; for change in vivo at 0.1 mg/kg: 0.1 mg/Kg iv
Method: Determination of cardiotonic effect on anesthetized cats: Male cats weighing about 3 kg were anesthetized with sodium pentobarbital (30 mg/kg, i.p.). The same anesthetic was infused intravenously at the does of 4 mg/kg/hr in order to maintain the anesthetic state and mechanically ventilated through a cuffed endotracheal tube, chest was opened by a midline incision and a catheter for measuring left ventricular pressure was inserted through apex into left ventricle and the left ventricular pressure was measured. LVdP/dt was determined by use of diffentiator from the left ventricular pressure. Systemic blood pressure was measured by the left femoral artery by a pressure transducer and heart rate was measured by a cardiotachometer triggered by blood pressure pulses. Test compound was injected into the femoral vein by use of cannule. After completion of the surgical procedures, the cats were allowed to recover about 30 minutes before drug administration. These compounds were dissolved in 0.9% physiological saline and diluted with saline. Solvent such as DMSO or DMF was also used, if necessary. Test compound of 0.1 ml/kg was used. Detailed method was reporated in J. Med. Chem. 30. 1279-87(1987).

SMILES	activation at 0.01 mg [1]	activation at 0.03 mg [1]	change in vivo at 0.01 mg/kg ([3]; read-out: HR (%))	change in vivo at 0.01 mg/kg ([3]; read-out: LV dp/dt (%))	change in vivo at 0.01 mg/kg ([3]; read-out: LVP (%))	change in vivo at 0.01 mg/kg ([3]; read-out: SBP (%))	change in vivo at 0.01 mg/kg ([3]; read-out: dBP)	change in vivo at 0.01 mg/kg ([3]; read-out: mBP (%))	change in vivo at 0.03 mg/kg ([3]; read-out: HR (%))	change in vivo at 0.03 mg/kg ([3]; read-out: LV dp/dt (%))	change in vivo at 0.03 mg/kg ([3]; read-out: LVP (%))	change in vivo at 0.03 mg/kg ([3]; read-out: SBP (%))	change in vivo at 0.03 mg/kg ([3]; read-out: dBP)	change in vivo at 0.03 mg/kg ([3]; read-out: mBP (%))	change in vivo at 0.1 mg/kg ([3]; read-out: HR (%))	change in vivo at 0.1 mg/kg ([3]; read-out: LV dp/dt (%))	change in vivo at 0.1 mg/kg ([3]; read-out: LVP (%))	change in vivo at 0.1 mg/kg ([3]; read-out: SBP (%))	change in vivo at 0.1 mg/kg ([3]; read-out: dBP)	change in vivo at 0.1 mg/kg ([3]; read-out: mBP (%))	also measured
Cc1cn(-c2ccc3c(c2)COC(=O)N3)c(C)n1 [6-(2,4-dimethylimidazol-1-yl)-(4H)-3,1-benzoxazin-2-one]	10.3%	15.2%																			activation at 0.001 mg [1]: 0%; activation at 0.003 mg [1]: 3.7%; activation at 0.001 mg [2]: 0%; activation at 0.003 mg [2]: 0%; activation at 0.01 mg [2]: 0%; activation at 0.03 mg [2]: 1.67%; change of sinus rate (%) [2]: +2.56%
CCc1nc(C)cn1-c1ccc2c(c1)COC(=O)N2 [6-(2-ethyl-4-methylimidazol-1-yl)-(4H)-3,1-benzoxazin-2-one]	12.5%	14.7%																			activation at 0.001 mg [1]: 0.68%; activation at 0.003 mg [1]: 3.45%; activation at 0.001 mg [2]: 0%; activation at 0.003 mg [2]: 0%; activation at 0.01 mg [2]: 0.83%; activation at 0.03 mg [2]: 1.65%; change of sinus rate (%) [2]: +6.82%
O=C1Nc2ccc(-n3ccnc3)cc2CS1 [6-(imidazol-1-yl)-(4H)-3,1-benzothiazin-2-one]	10.7%	22.7%	1.6%	0%	0%	-2.4%	0%	-1.2%	4.7%	20%	9.9%	-4.8%	-7.8%	-5.8%	7%	39.6%	18.9%	-19.1%	-19.1%	-19.6%	
S=C1Nc2ccc(-n3ccnc3)cc2CS1 [6-(imidazol-1-yl)-(4H)-3,1-benzothiazin-2-thione]			-1.1%	8.3%	2%	2%	-3.2%	-2%	-0.8%	16.6%	4%	3%	-3.3%	0%	0.6%	25%	5.7%	3%	-7.4%	-3.6%	
Cc1cn(-c2cc(C)c3c(c2)CSC(=S)N3)cn1 [8-methyl-6-(4-methylimidazol-1-yl)-(4H)-3,1-benzothiazin-2-thione]			0%	6%	1.2%	-2.3%	-5.1%	-3.3%	1.6%	20%	1.8%	-2.3%	-7.7%	-5.3%	10.9%	53.3%	2%	-3.1%	-11.5%	-7.6%	
